In patent US10689331B2, “IDO inhibitors” (Bristol-Myers Squibb Company, priority 2015, dated 2020):

Target: T1, human IDO1 (Homo sapiens, UniProt P14902)
T1 construct: expressed in transfected cells
Test: HEK Human IDO-1 inhibition assay (kynurenine readout, Ehrlich reagent, absorbance 490 nm)
Format: cell-based
Details: human IDO1/HEK293 cells, incubated 20 hours with compound; 500 nM reference standard = 100% inhibition
Outline: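 HEK293 cells stably expressing human IDO1, treated with compound for 20 h at 37 °C in phenol red-free RPMI/10% FBS. Kynurenine detected after TCA (0.2% final, 50 °C, 30 min) by Ehrlich reagent absorbance at 490 nm; IC50 normalised to 500 nM reference standard (100%) and DMSO (0%).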

T1 sequence (P14902 whole entry): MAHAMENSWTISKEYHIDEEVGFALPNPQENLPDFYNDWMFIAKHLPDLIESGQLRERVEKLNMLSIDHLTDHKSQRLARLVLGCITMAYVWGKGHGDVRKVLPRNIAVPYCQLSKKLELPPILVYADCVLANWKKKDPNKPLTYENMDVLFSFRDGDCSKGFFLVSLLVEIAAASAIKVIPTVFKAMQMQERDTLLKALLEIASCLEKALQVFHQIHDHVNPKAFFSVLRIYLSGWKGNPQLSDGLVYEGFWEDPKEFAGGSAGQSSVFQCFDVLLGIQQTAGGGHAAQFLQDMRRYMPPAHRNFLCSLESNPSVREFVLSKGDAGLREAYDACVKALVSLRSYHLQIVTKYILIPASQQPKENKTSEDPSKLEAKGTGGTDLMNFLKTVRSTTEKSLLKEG

CC(C)CN(c1ccc(OC(C)C(=O)O)cc1NC(=O)Cc1ccc(F)cc1)C1CCCCC1 (racemic) [Example 74, 2-(4-(cyclohexyl(isobutyl)amino)-3-(2-(4-fluorophenyl)acet-amido)phenoxy)propanoic acid] was tested, and the IC50 was no less than 100 nM.
For CCCC(Oc1ccc(N(CC(C)C)C2CCCCC2)c(NC(=O)Nc2cncnc2)c1)C(=O)O (single isomer, unassigned) [Example 88-1, 2-(4-(cyclohexyl(isobutyl)amino)-3-(3-(pyrimidin-5-yl)ureido)phenoxy)pentanoic acid], the IC50 was no less than 100 nM.
For COc1cnc(Nc2cc(OC(C)C(=O)O)ccc2N(CC(C)C)C2CCCCC2)nc1 (racemic) [Example 63, (±)-2-(4-(cyclohexyl(isobutyl)amino)-3-((5-methoxypyrimidin-2-yl)amino)phenoxy)propanoic acid], the IC50 was no less than 100 nM.
In the case of C=C(C)CN(c1ccc(OC(C)C(=O)O)cc1NC(=O)Nc1ccc(Cl)cc1F)C1CCOCC1 (single isomer, unassigned) [Example 139-2, 2-(3-(3-(4-chloro-2-fluorophenyl)ureido)-4-((2-methylallyl)(tetrahydro-2H-pyran-4-yl)amino)phenoxy)propanoic acid], the IC50 is reported as less than 5 nM.
Work on CC(C)CN(c1ccc(OCC(=O)O)cc1NC(=O)Nc1cccc(Cl)c1F)C1CCCCC1 [Example 26, 2-(3-(3-(3-chloro-2-fluorophenyl)ureido)-4-(cyclo-hexyl(isobutyl)amino)phenoxy) acetic acid] yielded an IC50 of no less than 100 nM.
Compound COc1ccc(NC(=O)Nc2cc(OCC(=O)O)ccc2N(CC(C)C)C2CCCCC2)c(F)c1 [Example 25, 2-(4-(cyclohexyl(isobutyl)amino)-3-(3-(2-fluoro-4-methoxyphenyl)ureido)phenoxy)acetic acid] has an IC50 of less than 5 nM.
Work on COC1CCC(N(CC(C)C)c2ccc(OCC(=O)O)cc2NC(=O)Nc2ccc(Cl)cc2F)CC1 (stereo not shown) [Example 152, 2-(3-(3-(4-chloro-2-fluorophenyl)ureido)-4-(isobutyl(0-4-methoxycyclohexyl)amino)phenoxy)acetic acid] yielded an IC50 of no less than 100 nM.
Compound CC(Oc1ccc(N(CCC(F)(F)F)C2CCOCC2)c(NC(=O)Nc2ccc(Cl)cc2F)c1)C(=O)O (stereo not shown) [Example 148, 2-(3-(3-(4-chloro-2-fluorophenyl)ureido)-4-((tetrahydro-2H-pyran-4-yl)(3,3,3-trifluoropropyl)amino)phenoxy)propanoic acid] has an IC50 of no less than 100 nM.
For C=C(C)CN(CCCC(F)(F)F)c1cc(F)c(OCC(=O)O)cc1NC(=O)Nc1cc(C)no1 [Example 121, 2-(2-fluoro-4-((2-methylallyl)(4,4,4-trifluorobutyl)amino)-5-(3-(3-methylisoxazol-5-yl)ureido)phenoxy)acetic acid], the IC50 was less than 100 nM.
With Cc1nnc(NC(=O)Nc2cc(OCC(=O)O)ccc2N(CC(C)C)C2CCCCC2)s1 [Example 11, 2-(4-(cyclohexyl(isobutyl)amino)-3-(3-(5-methyl-1,3,4-thiadiazol-2-yl)ureido)phenoxy)acetic acid] the IC50 was no less than 100 nM.
With CC(C)CN(c1ccc(OCC(N)=O)cc1NC(=O)Nc1ccc(Cl)cc1F)C1CCCCC1 [Example 153, 2-(3-(3-(4-chloro-2-fluorophenyl)ureido)-4-(cyclohexyl(isobutyl)amino)phenoxy)acetamide] the IC50 was no less than 100 nM.
For Cc1ccc(NC(=O)Nc2cc(OC(C)C(=O)O)ccc2N(CC(C)C)C2CCCCC2)c(F)c1 (single isomer, unassigned) [Example 65-1, 2-(4-(cyclohexyl(isobutyl)amino)-3-(3-(2-fluoro-4-methylphenyl)ureido)phenoxy)propanoic acid], the IC50 was less than 100 nM.
Compound CC(C)CN(c1ccc(OCC(=O)O)cc1NC(=O)Nc1ccon1)C1CCCCC1 [Example 10, 2-(4-(cyclohexyl(isobutyl)amino)-3-(3-(isoxazol-3-yl)ureido)phenoxy)acetic acid] has an IC50 of no less than 100 nM.
CC(C)CN(c1ccc(OCC(=O)O)cc1NC(=O)Nc1ccc(C#N)cc1)C1CCCCC1 [Example 39, 2-(3-(3-(4-cyanophenyl)ureido)-4-(cyclohexyl(isobutyl)amino)phenoxy)acetic acid] showed an IC50 of no less than 100 nM.
Work on CCCN(Cc1ccc(Cl)cc1)c1ccc(OCC(=O)O)cc1NC(=O)Nc1ccc(Cl)cc1F [Example 164, 2-(3-(3-(4-chloro-2-fluorophenyl)ureido)-4-((4-chlorobenzyl)(propyl)amino)phenoxy)acetic acid] yielded an IC50 of less than 100 nM.
CC(C)CN(c1ccc(OC(C)C(=O)O)cc1NC(=O)Nc1ccc(Cl)cc1F)C1CCCCC1 (single isomer, unassigned) [Example 61-1, 2-(3-(3-(4-chloro-2-fluorophenyl)ureido)-4-(cyclo-hexyl(isobutyl)amino)phenoxy)propanoic acid] showed an IC50 of less than 5 nM.
With Cc1cc(NC(=O)Nc2cc(OCC(=O)NS(=O)(=O)C3CC3)ccc2N(CC(C)C)C2CCCCC2)no1 [Example 50, 2-(4-(cyclohexyl(isobutyl)amino)-3-(3-(5-methyl-isoxazol-3-yl)ureido)phenoxy)-N-(cyclopropylsulfonyl)acetamide] the IC50 was no less than 100 nM.
Work on CC(C)CN(c1ccc(OCC(=O)O)cc1NC(=O)Nc1ccc(Cl)cc1F)C1COC1 [Example 147, 2-(3-(3-(4-chloro-2-fluorophenyl)ureido)-4-(isobutyl(oxetan-3-yl)amino)phenoxy)acetic acid] yielded an IC50 of no less than 100 nM.
CC(C)CN(c1ccc(OCc2ncco2)cc1NC(=O)Nc1ccc(Cl)cc1F)C1CCCCC1 [Example 156, 1-(4-chloro-2-fluorophenyl)-3-(2-(cyclohexyl(isobutyl)amino)-5-(oxazol-2-ylmethoxy)phenyl)urea] gave an IC50 of less than 100 nM.
CC(C)CN(c1ccc(OCC(=O)O)cc1NC(=O)Nc1nnc(C(F)(F)F)s1)C1CCCCC1 [Example 8, 2-(4-(cyclohexyl(isobutyl)amino)-3-(3-(5-(trifluoromethyl)-1,3,4-thiadiazol-2-yl)ureido)phenoxy) acetic acid] was tested, and the IC50 was no less than 100 nM.
For CC(C)CN(c1ccc(OCC(=O)NS(=O)(=O)N(C)C)cc1NC(=O)Nc1ccc(Cl)cc1F)C1CCCCC1 [Example 46, 2-(3-(3-(4-chloro-2-fluorophenyl)ureido)-4-(cyclohexyl(isobutyl)amino)phenoxy)-N—(N,N-dimethylsulfamoyl)acetamide], the IC50 was less than 5 nM.
In the case of CCC(Oc1ccc(N(CC(C)C)C2CCCCC2)c(NC(=O)Nc2ccc(Cl)cc2F)c1)C(=O)O (single isomer, unassigned) [Example 80-2, 2-(3-(3-(4-chloro-2-fluorophenyl)ureido)-4-(cyclohexyl(isobutyl)amino)phenoxy)butanoic acid], the IC50 is reported as less than 5 nM.
Work on CCOC(=O)C(C)Oc1ccc(N(CC(C)C)C2CCCCC2)c(NC(=O)Nc2ccc(Cl)cc2F)c1 (single isomer, unassigned) [Example 67-1, ethyl 2-(3-(3-(4-chloro-2-fluorophenyl)ureido)-4-(cyclohexyl(isobutyl)amino)phenoxy)propanoate] yielded an IC50 of less than 100 nM.
Compound C=C(C)CN(CCCC(F)(F)F)c1cc(F)c(OCC(=O)O)cc1NC(=O)Nc1ccc(Cl)cc1F [Example 113, 2-(5-(3-(4-chloro-2-fluorophenyl)ureido)-2-fluoro-4-((2-methylallyl)(4,4,4-trifluorobutyl)amino)phenoxy)acetic acid] has an IC50 of less than 5 nM.
CC(C)CN(c1ccc(OC(C)C(=O)O)cc1NC(=O)Nc1ccc(C#N)cc1)C1CCCCC1 (single isomer, unassigned) [Example 66-1, 2-(3-(3-(4-cyanophenyl)ureido)-4-(cyclohexyl(isobutyl)amino)phenoxy)propanoic acid] was tested, and the IC50 was less than 100 nM.
